Results from US20130231377A1, “PACTAMYCIN ANALOGS AND METHODS OF USE” (State of Oregon acting by and through the state Board of …, priority 2010, published 2013).
Like-named read-outs stand apart in the source and are kept apart here.

How the values were obtained:
[1] = test system: chloroquine-resistant and MDR clone Dd2 of P. falciparum; assay: Antimalarial activity assay, SYBR Green I fluorescence-based method; type: cell-based, Plasmodium falciparum; conditions: for IC50: read-out: Antimalarial IC50 (Dd2); for IC90: read-out: Antimalarial IC90 (Dd2)
Protocol: (§1) An antimalarial activity assay was carried out at the Oregon Translational Research and Drug Development Institute (OTRADI). Two strains of P. falciparum were used. The chloroquine-sensitive clone D6, and chloroquine-resistant and MDR clone Dd2 was obtained from the Malaria Research and Reference Reagent Resource Center (MR4) (Manassas, Va.). The parasites were cultured according to the method of Trager and Jensen (Trager and Jensen, Science, 1976, 193:673-675), with minor modifications. The cultures were maintained in human erythrocytes (Lampire Biological Laboratories, Pipersville, Pa.), suspended at 2% hematocrit in RPMI 1640 (Sigma) containing 0.5% Albumax (Invitrogen), […] hypoxanthine (Lancaster), and 50 μg/L gentamicin (Invitrogen), and incubated at 37° C. under a gas mixture of 5% O2, 5% CO2, and 90% N2. In vitro antimalarial activity was determined by a SYBR Green I fluorescence-based method described previously by Smilkstein et al. (Smilkstein et al., Antimicrob. Agents Chemother., 2004, 48:1803-1806). Frozen stock solutions of each test drug (1 mM in DMSO) were thawed, warmed to 37° C., and mixed thoroughly prior to use. Drug solutions were serially diluted with culture medium, and distributed to asynchronous parasite cultures on 96-well plates in quadruplicate in a total volume of 100 μL to achieve 0.2% parasitemia with a 2% hematocrit in a total volume of 100 μL. Automated pipeting and dilution was carried using programmable Precision XS (Bio-Tek, Winooski, Vt.) and Sciclone ALH3000 (Caliper, Hopkinton, Mass.) robotic stations. The plates then were incubated for 72 hours at temperature and gas conditions described above. After incubation, 100 μL of lysis buffer with SYBR Green I was added to each well. The plates were incubated at room temperature for 1 h and then placed in a 96-well fluorescence plate reader (Synergy4, BioTek, Winooski, Vt.) with excitation and emission wavelength at 485 nm and 528 nm, respectively, for measurement of fluorescence. The 50% inhibitory concentration (IC50) was determined by non-linear regression analysis of logistic dose-response curves (GraphPad Prism software).

[2] = test system: chloroquine-sensitive clone D6 of P. falciparum; assay: as above; type: cell-based, Plasmodium falciparum; conditions: for IC50: read-out: Antimalarial IC50 (D6); for IC90: read-out: Antimalarial IC90 (D6)
Protocol: as §1

[3] = test system: Gram-positive and Gram-negative bacteria; assay: Antibacterial agar diffusion and micro-dilution assays, all tested strains (Example 1); type: cell-based, S. aureus, B. subtilis, P. aeruginosa, E. coli; conditions: for antibacterial activity in agar diffusion and micro-dilution assays (in words): at the concentrations used; for IC50: consistently higher than pactamycin, mostly >1 mM, read-out: IC50 against all tested bacterial strains
Protocol: The antibacterial activity of pactamycin and its analogs was determined by agar diffusion and micro-dilution assays. E. coli, P. aeruginosa, B. subtilis or M. smegmatis, and S. aureus were streaked on nutrient agar (Difco or Beckton-Dickinson) and grown overnight at 37° C. Colonies were transferred to nutrient broth and incubated at 37° C. for 24 hours. Turbidity of the inoculum was measured to a proper density at 600 nm (BioRad, SmartSpec 3000). For plate preparation, inoculum (500 μL) was mixed thoroughly with warm nutrient agar (50 mL) and poured to 25 mL square plates. The agar plates were allowed to solidify and dry for 30 min before assay. Sterile blank paper disks (Becton-Dickinson) were impregnated with pactamycin and its analogs (20 μL) at various concentrations and dried at room temperature. The disks were placed onto inoculated agar plates and incubated at 37° C. for 24 hours. In order to produce a contrast background of the inhibition zone, 0.25% MTT developing dye (1 mL) was added over the plates.
Micro-dilution assays were performed in 96-well plates. The compounds were serially diluted and added to the bacterial suspension at final concentrations of 1 mM-10 nM, or 0.5 mM-10 nM. After incubation at 37° C. for 24 hours, 0.25% MTT developing dye (50 μL) was added. Each assay was done in triplicate.

[4] = Cytotoxicity assay (WST-8) against HCT116 cells; type: cell-based; conditions: human, HCT116 colorectal carcinoma cells, estimated
Protocol: HCT116 (colorectal carcinoma) cells were seeded onto a 96-well plate at 10,000 cells per well. Cells were treated with either 5, 50, 500 or 5000 nM TM-025, TM-026, N-acetyl-glucosaminyl-3-aminoacetophenone or 5, 25, 50, 100 nM pactamycin in triplicate for 48 hours. For the narrow range concentration assays, cells were treated with either 0.5, 1, 2 or 4 μM TM-025; 1, 2, 3 or 5 μM TM-026; 0.5, 2, 5 or 7 μM N-acetylglucosaminyl-3-aminoacetophenone or 12.5, 25, 50, 100 nM pactamycin in triplicate for 24 or 48 hours. WST-8 [2-(2-methoxy-4-nitrophenyl)-3-[…], monosodium salt] (Dojindo, Rockville, Md.) was added to each well to give an orange-colored formazan product, which is soluble in tissue culture medium. Absorbance was measured at 450 nm. Percent of viable cells was calculated relative to the “No Treatment” and “Solvent Only” wells.

Mycobacterium smegmatis = assay: Antibacterial agar diffusion assay (Example 2); type: cell-based
Protocol: (§2) Antibacterial activity of pactamycin and its analogues was determined by an agar diffusion assay. E. coli, Pseudomonas aeruginosa, Mycobacterium smegmatis, and Staphylococcus aureus were streaked on nutrient agar (Difco) and grown overnight at 37° C. Colonies were transferred to nutrient broth and incubated at 37° C. for 24 hours. Turbidity of the inoculum was measured to a proper density at 600 nm (BioRad, SmartSpec 3000). For plate preparation, inoculum (500 μL) was mixed thoroughly with warm nutrient agar (50 mL) and poured to 25 mL square plates. The agar plates were allowed to solidify and dry for 30 minutes before assay. Sterile blank paper disks (Becton-Dickinson) were impregnated with pactamycin and its analogues (20 μL) at various concentrations and dried at room temperature. The disks were placed onto inoculated agar plates and incubated at 37° C. for 24 hours. In order to produce a contrast background of the inhibition zone, 0.25% MTT developing dye (1 mL) was added over the plates.

Pseudomonas aeruginosa = assay: Antibacterial agar diffusion assay (Example 2); type: cell-based
Protocol: as §2

Staphylococcus aureus = assay: Antibacterial agar diffusion assay (Example 2); type: cell-based
Protocol: as §2

E. coli = assay: Antibacterial agar diffusion assay (Example 2); type: cell-based, Escherichia coli
Protocol: as §2

[5] = test system: human colon cancer HT-29 cells; assay: MTT cell viability assay in HT-29 cells; type: cell-based; conditions: HT-29 cells, 24-hour
Protocol: The MTT assay was carried out as described by Mosmann (J. Immunol. Methods, 1983, 65:55). Briefly, human colon cancer HT-29 cells (ATCC) were seeded in 96-well plates at a density of 1.0×10^4 cells per well. The growth medium consisted of phenol red-free RPMI 1640 (Invitrogen, Carlsbad, Calif.) containing 10% fetal bovine serum (Invitrogen, Carlsbad, Calif.), glutamine (2 mM), penicillin (100 units/mL) and streptomycin (100 μg/mL). After a 24-hour incubation at 37° C. in a humidified atmosphere of 5% CO2, the medium was removed and replaced with fresh RPMI 1640 medium (with or without 10% FBS and no penicillin or streptomycin). Increasing concentrations of pactamycin, pactamycate, de-6MSA pactamycin, or de-6MSA-pactamycate dissolved in DMSO were added to cells at a volume of 0.2 mL/well. DMSO was added to control media not to exceed a final concentration of 1%. Following a 24-hour incubation, the medium was aspirated from each well and replaced with fresh RPMI medium with 10% FBS and MTT (0.5 mg/mL). […] The plate was shaken for 10 minutes before reading the absorbance at 570 nm using a microplate reader (SpectraMax 250, Molecular Devices, Sunnyvale, Calif., USA). The viability of treated cells was expressed as the percentage of control cells. […]

[6] = test system: HT-29 human colon carcinoma cells; assay: SRB growth inhibition assay in HT-29 cells; type: cell-based
Protocol: Growth inhibition of HT-29 cells induced by the test compounds was also evaluated by the SRB assay, which is based on measuring total biomass by staining the cellular proteins with sulforhodamine B (Skehan et al., J. Natl. Cancer Inst., 1990, 82:1107). After treating the HT-29 cells with the compounds for 24 hours, the adherent cells grown in 96-well plates were fixed with 10% trichloroacetic acid and incubated for 1 hour at 4° C. The plates were washed five times with tap water, dried, and stained with SRB solution (0.4% wt/vol in 1% acetic acid) for 30 minutes at room temperature. The plates were again washed and dried before adding 10 mM Tris base to solubilize the bound stain. Optical densities (OD) were read at 564 nm in SpectraMax 250 and cell growth of treated cells was expressed as the percentage of control cells, ODtest/ODcontrol×100%.

[7] = Plasmodium falciparum, DD2, 72 h, P. falciparum Dd2, 72 hours
[8] = Plasmodium falciparum, D6, 72 h, P. falciparum D6, 72 hours
[9] = Plasmodium falciparum, DD2, 72 h
[10] = Plasmodium falciparum, D6, 72 h

CC(=O)N[C@H]1C(Nc2cccc(C(C)=O)c2)O[C@H](CO)[C@@H](O)[C@@H]1O (stereo partly shown) [N-acetylglucosaminyl-3-aminoacetophenone, reference compound]
antimalarial activity (in words) ([1]; P. falciparum Dd2): lack of activity
antimalarial activity (in words) ([2]; P. falciparum D6): lack of activity

CC(=O)c1cccc(N[C@H]2[C@H](N)[C@](C)(NC(=O)N(C)C)[C@@](C)(O)[C@@]2(O)CO)c1 [TM-025, de-6MSA-7-demethyl-7-deoxypactamycin]
IC50 ([1]; P. falciparum Dd2, 72 hours): ~0.025 µM
IC90 ([1]; P. falciparum Dd2, 72 hours): ~0.076 µM
IC50 [1, 7]: 0.025 to 0.03 µM
IC90 [1, 7]: 0.062 to 0.077 µM
IC50 ([2]; P. falciparum D6, 72 hours): ~0.025 µM
IC90 ([2]; P. falciparum D6, 72 hours): ~0.062 µM
IC50 [2, 8]: 0.025 to 0.03 µM
IC90 [2, 8]: 0.062 to 0.077 µM
antibacterial activity in agar diffusion and micro-dilution assays (in words) [3]: neither TM-025 nor TM-026 showed any significant activity
IC50 [3]: > 1000 µM
IC50 [4]: ~1.3 µM

CC(=O)c1cccc(N[C@H]2[C@H](N)[C@](C)(NC(=O)N(C)C)[C@@](C)(O)[C@@]2(O)COC(=O)c2c(C)cccc2O)c1 [TM-026, 7-demethyl-7-deoxypactamycin]
IC50 ([1]; P. falciparum Dd2, 72 hours): ~0.026 µM
IC90 ([1]; P. falciparum Dd2, 72 hours): ~0.077 µM
IC50 [1, 7]: 0.025 to 0.03 µM
IC90 [1, 7]: 0.062 to 0.077 µM
IC50 ([2]; P. falciparum D6, 72 hours): ~0.03 µM
IC90 ([2]; P. falciparum D6, 72 hours): ~0.063 µM
IC50 [2, 8]: 0.025 to 0.03 µM
IC90 [2, 8]: 0.062 to 0.077 µM
antibacterial activity in agar diffusion and micro-dilution assays (in words) [3]: neither TM-025 nor TM-026 showed any significant activity
IC50 [3]: > 1000 µM
IC50 [4]: ~3 µM

C[C@@H]1CC[C@H]2[C@@H](C)C(=O)O[C@@H]3O[C@@]4(C)CC[C@@H]1[C@]32OO4 [artemisinin, reference compound]
EC50 ([1]; Plasmodium falciparum, Example 2, FIG. 14, multi-drug resistant Dd2, read-out: EC50 against the Dd2 strain): 0.007 µM

CCN(CC)CCCC(C)Nc1ccnc2cc(Cl)ccc12 (stereo not shown) [chloroquine, reference compound]
EC50 ([2]; Plasmodium falciparum, D6, read-out: EC50 against the D6 strain): 0.01 µM

CC(=O)c1cccc(N[C@H]2[C@H](N)[C@]3(NC(=O)O[C@H]3C)[C@@](C)(O)[C@@]2(O)CO)c1 [de-6MSA-pactamycate]
antibacterial activity, growth of Mycobacterium smegmatis (Mycobacterium smegmatis): no antibacterial activity
antibacterial activity, growth of Pseudomonas aeruginosa (Pseudomonas aeruginosa): no antibacterial activity
antibacterial activity, growth of Staphylococcus aureus (Staphylococcus aureus): no antibacterial activity
antibacterial activity, growth of E. coli (E. coli): no antibacterial activity

CC(=O)c1cccc(N[C@H]2[C@H](N)[C@]3(NC(=O)O[C@H]3C)[C@@](C)(O)[C@@]2(O)COC(=O)c2c(C)cccc2O)c1 [pactamycate, reference compound]
IC50 [1, 9]: ~0.3 µM
IC90 [1, 9]: ~0.8 µM
IC50 [2, 10]: ~0.3 µM
IC90 [2, 10]: ~0.8 µM
antibacterial activity, growth of Mycobacterium smegmatis (Mycobacterium smegmatis): no antibacterial activity
antibacterial activity, growth of Pseudomonas aeruginosa (Pseudomonas aeruginosa): no antibacterial activity
antibacterial activity, growth of Staphylococcus aureus (Staphylococcus aureus): no antibacterial activity
antibacterial activity, growth of E. coli (E. coli): no antibacterial activity
cytotoxicity profile (MTT-based assay) [5]: reduced cytotoxicity profile
cytotoxicity profile (SRB-based assay) [6]: reduced cytotoxicity profile
